Positions of bridges follow the written chain, without caps; N, C: chain ends. Chains are numbered I, II in the order given.
What was measured:
human ASGPR-1 = target: T1, human ASGPR-1 (Homo sapiens, UniProt P07306); assay: Inhibition of binding of multivalent GalNAc-PAA; conditions: about 200 pmoles biotinylated GalNAc-PAA, increasing peptide
T1 construct: The extracellular domains of receptors, which were fused with the Fc domain of immunoglobulin IgG; purchased R&D Systems
T1 sequence (P07306 62-291 limits assumed): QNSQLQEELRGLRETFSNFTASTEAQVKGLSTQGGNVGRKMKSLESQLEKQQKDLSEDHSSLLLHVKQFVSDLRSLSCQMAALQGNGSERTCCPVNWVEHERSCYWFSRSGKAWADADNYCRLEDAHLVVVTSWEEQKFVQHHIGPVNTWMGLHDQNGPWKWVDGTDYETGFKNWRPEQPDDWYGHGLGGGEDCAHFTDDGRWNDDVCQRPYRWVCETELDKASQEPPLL
Experimental: (§1) FIGS. 3A-3D. sv6D as a mimetic of GalNAc. (FIG. 3A) Inhibition by sv6D of binding of multivalent GalNAc-PAA (GlycoTech Corp., Frederick, Md.) to recombinant rat CLEC10A and human ASGPR-1. The reaction mixture included approximately 200 pmoles of biotinylated GalNc-PAA and increasing concentrations of peptide. The figure includes average values from 3 independent experiments. (FIG. 3B) Biotinylated sv6D or GalNAc-PAA were incubated with rabbit antiserum raised against the 6D sequence (NQHTPR) (SEQ ID NO:1) conjugated to keyhole limpet hemocyanin (KLH). Binding was detected with streptavidin-peroxidase conjugate. Similar data were obtained in 2 experiments. (FIG. 3C) Inhibition by EGTA of binding of sv6D (pattern) or svL4 (solid) to CLEC10A and ASGPR-1, respectively. EGTA (1 mM) was added to the final concentrations indicated to assays. Retention of bound CLEC10A was determined by incubation with biotinylated anti-CLEC10A (goat IgG, R&D Systems) and detection with streptavidin-peroxidase conjugate (light grey circle). Similar data were obtained in 3 experiments. (FIG. 3D) Binding of svL4 and sv6D to human recombinant CLEC10A and ASGPR-1 as a function of concentration of peptide in the assay. The figure is representative of 4 separate assays.
(§2) To further determine whether sv6D interacts with the actual sugar binding site, the ability of sv6D to compete with GalNAc-PAA for binding was assayed.

recombinant rat CLEC10A = target: T2, recombinant rat CLEC10A (Rattus norvegicus, UniProt P49301); assay: Inhibition of binding of multivalent GalNAc-PAA
T2 construct: The extracellular domains of receptors, which were fused with the Fc domain of immunoglobulin IgG; purchased R&D Systems
T2 sequence (P49301 59-306 limits assumed): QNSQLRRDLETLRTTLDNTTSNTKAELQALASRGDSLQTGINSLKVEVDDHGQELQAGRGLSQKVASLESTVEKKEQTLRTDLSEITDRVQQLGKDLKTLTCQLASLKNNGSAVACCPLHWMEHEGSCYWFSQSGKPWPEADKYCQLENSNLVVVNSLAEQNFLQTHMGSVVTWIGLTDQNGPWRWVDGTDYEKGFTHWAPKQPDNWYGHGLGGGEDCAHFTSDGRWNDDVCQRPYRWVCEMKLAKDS
Experimental: as §1, §2

CD4 and CD8 T cells = assay: In vitro challenge of T cells from mice injected with sv6D-MOG; type: cell-based, C57BL/6 mice; conditions: mice injected weekly x2 with 0.1 nmol/g; 72 h incubation
Experimental: FIGS. 11A-11B. Activation of T cells by sv6D-antigen conjugate. IFN-γ (FIG. 11A) and IL-2 (FIG. 11B) production upon in vitro challenge of T cells after weekly injections of sv6D or sv6D-MOG (MOG=myelin oligodendrocyte glycoprotein35-55) into C57BL/6 mice. One week after the second injection, spleen and right inguinal lymph node tissue were combined and homogenized to allow isolation of CD4 and CD8 T cells, which were mixed with non-T cell antigen presenting cells, and incubated 72 h with PBS, sv6D or sv6D-MOG. PMA (phorbol 12-myristate 13-acetate) and I (ionomycin) were added as positive controls. Activation of CD8^+ T cells indicated cross-presentation of the antigen to the cytosol of dendritic cells, mediated by sv6D.
Whereas sv6D is not antigenic in the mouse (FIG. 10), it is important to determine whether the peptide gains access to the cytosol of DCs. To test whether sv6D could initiate a TH1 response and activate CD8^+ T cells, a fragment of the myelin oligodendrocyte glycoprotein (MOG35-55) was attached to the C-terminus of sv6D and injected into mice. One week after a second weekly injection of 0.1 nmol/g peptide, CD4^+ and CD8^+ T cells were challenged in vitro with the conjugate. […] A high level of IL-2 was also released by CD4^+ T cells (FIG. 11B). These observations are typical of a strong response to vaccination and stimulation of clonal T cell proliferation. […]

[1] = Serum cytokine array (L-308) in healthy mice; type: in vivo, Balb/c mice; conditions: svL4 s.c., 4 h, separate experiment
Experimental: Ratios of treated vs. untreated samples obtained in a separate experiment with healthy Balb/c mice are shown in the right-hand column of Table 2 for comparison. The most significant increase in the serum of healthy mice treated with the peptide was in the amount of soluble HVEM (Herpes virus entry mediator, also designated TNFRSF14), which was a prominent protein in serum and increased approximately 10-fold within 4 h after treatment. In the tumor-bearing mice, the level of soluble HVEM in treated animals was similar to that in treated healthy mice, but the level in untreated animals was higher than that in healthy control mice.

Substance	Inhibition of binding of GalNAc-PAA to ASGPR-1 (human ASGPR-1)	Inhibition of binding of GalNAc-PAA to CLEC10A (recombinant rat CLEC10A; about 200 pmoles biotinylated GalNAc-PAA, increasing peptide)	Avidity relative to multivalent GalNAc-PAA (recombinant rat CLEC10A; from competition experiment)	IFN-γ release by CD4+ and CD8+ T cells on in vitro challenge (CD4 and CD8 T cells)	Ratio of level of IFN-γ in sera (treated vs. untreated) [1]	Ratio of level of IL-1α in sera (treated vs. untreated) [1]	Ratio of level of IL-2 in sera (treated vs. untreated) [1]	Ratio of level of IL-12p70 in sera (treated vs. untreated) [1]	Ratio of level of IL-17 in sera (treated vs. untreated) [1]	Ratio of level of IL-21 in sera (treated vs. untreated) [1]	Ratio of level of IL-23 in sera (treated vs. untreated) [1]	Ratio of level of IL-27 in sera (treated vs. untreated) [1]	Ratio of level of IL-28 in sera (treated vs. untreated) [1]	Ratio of level of IL-31 in sera (treated vs. untreated) [1]	Ratio of level of Lymphotoxin-α in sera (treated vs. untreated) [1]	Ratio of level of TNFα in sera (treated vs. untreated) [1]
I: H-NQHTPRGGGSKK-NH2 / II: H-NQHTPRGGGSK / III: H-NQHTPRGGGS / IV: H-NQHTPRGGGS (amide I:11-IV:C, I:12-II:C, II:11-III:C) [sv6D]	inhibited	inhibited	over an order of magnitude greater	did not induce IFN-γ release	–	–	–	–	–	–	–	–	–	–	–	–
I: H-VQATQSNQHTPRGGGSKK-NH2 / II: H-VQATQSNQHTPRGGGSK / III: H-VQATQSNQHTPRGGGS / IV: H-VQATQSNQHTPRGGGS (amide I:17-IV:C, I:18-II:C, II:17-III:C) [svL4]	–	–	–	–	no change	0.86	no change	no change	no change	no change	no change	0.55	no change	no change	0.74	0.21
